{
  "source": "patent US8487133B2",
  "about": "“Substituted bicyclo [4.1.0] heptane-7-carboxylic acid amides and derivatives thereof as food flavor substances” (Symrise AG, priority 2006, dated 2013)",
  "key": {"[1]": {"assay": "Sensorial tests of the taste of the compounds (own investigations)", "assay_type": "in vivo", "conditions": "for intrinsic umami taste: sensorial tests of the compound; for salt-intensifying effect / cooling effect: sensorial tests", "from_the_text": "From the taste aspect the use according to the invention of a compound of the Formula (I) which is one of the two enantiomeric compounds of the Formula (IVa),\nIn this connection the relative configuration of the stereogenic centers is of great importance."}, "trained panel": {"system": "trained panel", "assay": "Sensorial tests in American beef bouillon / meat broth by trained panel (mouthfeel, comparison with MSG)", "assay_type": "in vivo", "conditions": "for umami taste compared to other compounds having an umami taste / MSG: American beef bouillon base, 5 ppm (IVc), 2 ppm (B1)+(B2), 0.5 ppm (P1)+(P2) vs 0.05 wt. % MSG (FIG. 1-3)", "from_the_text": "This is also illustrated in the accompanying spider diagrams, in which an American beef bouillon as base is compared firstly to such a base containing an addition of 5 ppm of (1R,2S,5R,6S,7R)-2-isopropyl-5-methyl-bicyclo[4.1.0]heptane-7-carboxylic acid ethylamide (IVc) (FIG. 1) or 2 ppm of a mixture of (1S,2S,5R,6R,7S)-2-isopropyl-5-methyl-bicyclo[4.1.0]heptane-7-carboxylic acid cyclobutylamide (B1) and (1R,2S,5R,6S,7R)-2-isopropyl-5-methyl-bicyclo[4.1.0]heptane-7-carboxylic acid cyclobutylamide (B2) (FIG. 2) or 0.5 ppm of a mixture of (1S,2S,5R,6R,7S)-2-isopropyl-5-methyl-bicyclo[4.1.0]heptane-7-carboxylic acid cyclopentylamide (P1) and (1R,2S,5R,6S,7R)-2-isopropyl-5-methyl-bicyclo[4.1.0]heptane-7-carboxylic acid-cyclopentylamide (P2) (FIG. 3) respectively, and secondly with such a base containing an addition of 0.05 wt. % of MSG.\nThe mean values of the respective scores are shown.\nThe taste of a 0.5% American beef extract as base (continuous, pale line) was compared on the basis of an evaluation by a panel of trained testers with the taste firstly of such a base to which 5 ppm of (1R,2S,5R,6S,7R)-2-isopropyl-5-methyl-bicyclo[4.1.0]heptane-7-carboxylic acid ethylamide had been added (continuous, dark line), and secondly of such a base to which 0.05 wt. % of MSG had been added (dotted line).\nThe taste of a 0.5% American beef extract as base (continuous, pale line) was compared on the basis of an evaluation by a panel of trained testers to the taste firstly of such a base to which 2 ppm of a mixture of 1S,2S,5R,6R,7S)-2-isopropyl-5-methyl-bicyclo[4.1.0]heptane-7-carboxylic acid cyclobutylamide (B1) and (1R,2S,5R,6S,7R)-2-isopropyl-5-methyl-bicyclo[4.1.0]heptane-7-carboxylic acid cyclobutylamide (B2) had been added (continuous, dark line), and secondly of such a base to which 0.05 wt. % of MSG had been added (dotted line).\nThe taste of a 0.5 wt. % American beef extract as base (continuous, pale line) was compared on the basis of an evaluation by a panel of trained testers with the taste firstly of such a base to which 0.5 ppm of a mixture of (1S,2S,5R,6R,7S)-2-Isopropyl-5-methyl-bicyclo[4.1.0]heptane-7-carboxylic acid cyclopentylamide (P1) and (1R,2S,5R,6S,7R)-2-isopropyl-5-methyl-bicyclo[4.1.0]heptane-7-carboxylic acid cyclopentylamide (P2) had been added (continuous, dark line), and secondly of such a base to which 0.05 wt. % of MSG had been added (dotted line)."}},
  "data": [
    {"molecule": "CC(C)[C@@H]1CC[C@@H](C)[C@@H]2[C@@H](C(=O)NC3CCC3)[C@@H]21", "note": "[Formula (B2), (1R,2S,5R,6S,7R)-2-isopropyl-5-methyl-bicyclo[4.1.0]heptane-7-carboxylic acid-cyclobutylamide]", "values": [
      {"measurement": "intrinsic umami taste", "setting": "[1]", "value": "very strongly pronounced"}
    ]},
    {"molecule": "CCNC(=O)C1C2CC(C)CC(C)C21", "note": "(stereo not drawn) [2,4-dimethyl-bicyclo[4.1.0]heptane-7-carboxylic acid ethylamide]", "values": [
      {"measurement": "salt-intensifying effect", "setting": "[1]", "value": "slight"},
      {"measurement": "intrinsic umami taste", "setting": "[1]", "value": "stronger, umami-like"}
    ]},
    {"molecule": "(1R,2S,5R,6S,7R)-2-isopropyl-5-methyl-bicyclo[4.1.0]heptane-7-carboxylic acid cyclobutylamide/(1S,2S,5R,6R,7S)-2-isopropyl-5-methyl-bicyclo[4.1.0]heptane-7-carboxylic acid cyclobutylamide [mixture of (B1) and (B2)]", "values": [
      {"measurement": "umami taste compared to other compounds having an umami taste / MSG", "setting": "trained panel", "value": "clear umami taste very similar to sodium glutamate (MSG)"},
      {"measurement": "sweetish impression", "setting": "[1]; in vivo", "value": "slightly sweetish impression"},
      {"measurement": "intrinsic umami taste", "setting": "[1]", "value": "very strong umami note"}
    ]},
    {"molecule": "CCNC(=O)C1C2CCCC(C(C)C)C21", "note": "(stereo not drawn) [2-isopropyl-bicyclo[4.1.0]heptane-7-carboxylic acid ethylamide, reference compound]", "values": [
      {"measurement": "salt-intensifying effect", "setting": "[1]", "value": "slight"},
      {"measurement": "intrinsic umami taste", "setting": "[1]", "value": "very slight, umami-like"}
    ]},
    {"molecule": "CCNC(=O)[C@@H]1[C@@H]2[C@H]1[C@H](C(C)C)CC[C@H]2C", "note": "(single isomer, unassigned) [Formula (IVc)]", "values": [
      {"measurement": "mouthfeel", "setting": "trained panel; 5 ppm added to 0.5 wt. % American beef bouillon, compared with 0.05 wt. % MSG", "value": "increased by roughly the same extent as is normally achieved only by the addition of 0.05 wt. % of MSG"},
      {"measurement": "umami taste compared to other compounds having an umami taste / MSG", "setting": "trained panel", "value": "clear umami taste very similar to sodium glutamate (MSG)"},
      {"measurement": "intensification of saltiness, sweetness and umami taste of aroma compositions", "setting": "[1]; in vivo", "value": "intensifies the saltiness, the sweetness and the umami taste"},
      {"measurement": "cooling effect", "setting": "[1]", "value": "no cooling effect"},
      {"measurement": "intrinsic umami taste", "setting": "[1]", "value": "very strongly pronounced"}
    ]},
    {"molecule": "CCNC(=O)C1C2CCCCC21", "note": "(stereo not drawn) [Bicyclo[4.1.0]heptane-7-carboxylic acid N-ethylamide, reference compound]", "values": [
      {"measurement": "taste", "setting": "[1]; in vivo", "value": "no detectable taste"}
    ]},
    {"molecule": "CCNC(=O)C1C2C(C)CCC(C(C)C)C12", "note": "(stereo not drawn) [2-Isopropyl-5-methyl-2-ispropyl-bicyclo[4.1.0]heptane-7-carboxylic acid ethylamide]", "values": [
      {"measurement": "sensorial properties", "setting": "[1]; in vivo", "value": "particularly strong"}
    ]},
    {"molecule": "(1R,2S,5R,6S,7R)-2-isopropyl-5-methyl-bicyclo[4.1.0]heptane-7-carboxylic acid cyclopentylamide/(1S,2S,5R,6R,7S)-2-isopropyl-5-methyl-bicyclo[4.1.0]heptane-7-carboxylic acid cyclopentylamide [mixture of (P1) and (P2)]", "values": [
      {"measurement": "umami taste compared to other compounds having an umami taste / MSG", "setting": "trained panel", "value": "clear umami taste very similar to sodium glutamate (MSG)"},
      {"measurement": "umami taste", "setting": "[1]; at very low concentrations", "value": "very much more intensive and clear"}
    ]},
    {"molecule": "CC(C)[C@@H]1CC[C@@H](C)[C@H]2[C@H](C(=O)NC3CCCCC3)[C@H]21", "note": "[Formula (H1), (1S,2S,5R,6R,7S)-2-isopropyl-5-methyl-bicyclo[4.1.0]heptane-7-carboxylic acid cyclohexylamide]", "values": [
      {"measurement": "intrinsic umami taste", "setting": "[1]", "value": "very strongly pronounced"}
    ]},
    {"molecule": "CCNC(=O)C1CC1", "note": "[cyclopropanecarboxylic acid ethylamide, Cyclopropanecarboxylic acid N-ethylamide, reference compound]", "values": [
      {"measurement": "contribution to the mouthfeel", "setting": "trained panel; meat broth/consommé compositions", "value": "does not make any statistically significant contribution"},
      {"measurement": "umami taste", "setting": "[1]; 10 ppm in aqueous solutions", "value": "very weak umami taste"}
    ]},
    {"molecule": "CCNC(=O)[C@@H]1[C@@H]2[C@H]1[C@H](C)CC[C@H]2C(C)C", "note": "[(1S,2S,5R,6R,7S)-2-isopropyl-5-methyl-bicyclo[4.1.0]heptane-7-carboxylic acid ethylamide]", "values": [
      {"measurement": "cooling effect", "setting": "[1]", "value": "slight"},
      {"measurement": "intrinsic umami taste", "setting": "[1]", "value": "only moderately"}
    ]},
    {"molecule": "CC(C)[C@@H]1CC[C@@H](C)[C@H]2[C@H](C(=O)NC3CCC3)[C@H]21", "note": "[Formula (B1), (1S,2S,5R,6R,7S)-2-isopropyl-5-methyl-bicyclo[4.1.0]heptane-7-carboxylic acid cyclobutylamide]", "values": [
      {"measurement": "intrinsic umami taste", "setting": "[1]", "value": "very strongly pronounced"}
    ]},
    {"molecule": "CC(C)[C@@H]1CC[C@@H](C)[C@@H]2[C@@H](C(=O)NC3CCCCC3)[C@@H]21", "note": "[Formula (H2), (1R,2S,5R,6S,7R)-2-isopropyl-5-methyl-bicyclo[4.1.0]heptane-7-carboxylic acid-cyclohexylamide]", "values": [
      {"measurement": "intrinsic umami taste", "setting": "[1]", "value": "very strongly pronounced"}
    ]},
    {"molecule": "CCNC(=O)C1C2C1[C@H](C)CC[C@H]2C(C)C", "note": "(single isomer, unassigned) [mixture of both diastereomers]", "values": [
      {"measurement": "cooling effect", "setting": "[1]", "value": "can no longer be detected"},
      {"measurement": "intrinsic umami taste", "setting": "[1]", "value": "completely dominated by the umami impression of the (1R,2S,5R,6S,7R) isomer"}
    ]},
    {"molecule": "CCNC(=O)C1C2C3CCC(C3)C12", "note": "(stereo not drawn) [Tricyclo[3.2.1.0^2,4]octane-3-carboxylic acid N-ethylamide]", "values": [
      {"measurement": "mouthfeel", "setting": "trained panel; 50 ppm in broths/consommés made from American beef extract", "value": "statistically significant increase"},
      {"measurement": "salt-intensifying effect", "setting": "[1]", "value": "salt-intensifying effect"},
      {"measurement": "intrinsic umami taste", "setting": "[1]", "value": "distinct umami taste"}
    ]},
    {"molecule": "(1R,2S,5R,6S,7R)-2-isopropyl-5-methyl-bicyclo[4.1.0]heptane-7-carboxylic acid cyclohexylamide/(1S,2S,5R,6R,7S)-2-isopropyl-5-methyl-bicyclo[4.1.0]heptane-7-carboxylic acid cyclohexylamide [mixture of (H1) and (H2)]", "values": [
      {"measurement": "intrinsic umami taste", "setting": "[1]", "value": "umami note was also detected, which however developed somewhat more slowly"}
    ]}
  ]
}
